Data: patent publication US20260256860A1, “TRADITIONAL CHINESE MEDICINE COMPOSITION FOR TREATING AMYOTROPHIC LATERAL SCLEROSIS AND USE THEREOF” (HEBEI YILING MEDICAL RESEARCH INSTITUTE CO., LTD, priority 2023, published 2026)
“And” between values parts separate entries of the source, which are not always exact repeats. Equal values may be shown once.

Tests used:
Assay type in all cases: in vivo
[1] = system: SOD1-G93A transgenic mice; experiment: Immunoblotting of MBP and SV2A in spinal cord, SOD1-G93A transgenic mice; details: Riluzole 0.02 g/kg gavage, 30 days, negative control 1.00
Experimental: (§1) After ALS model mice were determined to have significant changes compared to negative control mice in behavioral test by combining literature as well as prior experience, they were randomly grouped according to their body weight. The drug administration was started and mice were observed.
(§2) The corresponding drug solution was administered via gavage using a syringe at a volume of 10 ml/kg. The model group and negative control group were administered with an equivalent volume of sterile injectable water. The administration dose for each animal was adjusted weekly according to the animal's latest weighed weight.
(§3) After 30 days of administration, electrophysiological measurements were performed, and tissue material was collected for subsequent detections. • 2.7.1 Electrophysiological parameters
Based on the amount of spinal cord tissue harvested from mice, myelin- and synapse-related molecular biological indicators were detected. The myelin- and synapse-related indicators included myelin basic protein (MBP) and synaptic vesicle protein 2A(SV2A).
Based on the amount of spinal cord tissue harvested from mice, myelin- and synapse-related molecular biological indicators, including myelin basic protein (MBP) and synaptic vesicle protein 2A (SV2A), were detected.

[2] = system: SOD1-G93A transgenic mice; experiment: Hanging test in SOD1-G93A transgenic mice; details: Riluzole 0.02 g/kg gavage, 90 second cut-off
Experimental: as §1, §2
• 2.6.1 The tail suspension test was carried out to observe straightening reflex of limbs. […] The scoring criteria are as follows: • 0 points—No flexion of the hindlimbs observed. • 1 point—Flexion observed in unilateral hindlimb, with no obvious flexion in the other. • 2 points—Flexion observed in bilateral hindlimbs. Mice with a score of 2 points were considered to be in the symptomatic phase. The tail suspension test was stopped when all ALS mice reached a score of 2 points. • 2.6.2 Hanging Test: The mouse was placed on a 3-mesh screen. The screen was then rapidly inverted, causing the mouse to hang upside down, and the timer was started. A 90 second cut-off time was set. The mice with a hanging time of less than 90 seconds were noted, and the actual time they remained hanged was recorded. The hanging test was discontinued upon the occurrence of death in ALS mice. […] The severity of this abnormality correlates with the degree of muscle atrophy and loss of muscle strength. In this study, the onset of disease in transgenic mice was determined based on the results of the tail suspension test. Additionally, guided by literature review and previous experimental experience, each mouse was sequentially evaluated by both the tail suspension and hanging tests.

[3] = system: SOD1-G93A transgenic mice; experiment: Neurological function score (Snow scoring) in SOD1-G93A transgenic mice; details: Riluzole 0.02 g/kg gavage
Experimental: as §1, §2
Neurological function was evaluated during the dosing phase using the Snow scoring method twice weekly. The specific criteria for neurological system scoring are as follows. • 1.0 point—Abnormal extension or tremors of hind limbs of the mouse when suspended by tail. • 1.5 points—Weakness of unilateral hind limb • 2.0 points—Weakness of bilateral hind limbs along with abnormal gait. • 2.5 points—Obvious weakness of unilateral hind limb. • 3.0 points—Obvious weakness of bilateral hind limbs. • 3.5 points—Paralysis in unilateral hind limb. • 4.0 points—Paralysis in bilateral hind limbs. • 5.0 points—Inability of mouse to right itself from a supine position within 20 seconds.

[4] = system: SOD1-G93A transgenic mice; experiment: HE staining of sciatic nerve, lesion grading, SOD1-G93A transgenic mice; parameters: key to Axonal degeneration with myelin degeneration, lesion grade of individual animal: mild (+); moderate (++); moderately severe (+++); severe (++++); details: for Lesion score (divided by gender): median of lesion grade points; for Axonal degeneration with myelin degeneration, lesion grade of individual animal: sciatic nerve HE, individual animals, listed as Positive drug control group
Experimental: as §1, §2, §3
HE staining was carried out to observe gastrocnemius muscle and sciatic nerve. Toluidine blue staining was carried out to observe the morphology and number of motor neurons in the spinal cord. • 2.7.4 Immunofluorescence

[5] = system: SOD1-G93A transgenic mice; experiment: Time to onset of paralysis in SOD1-G93A transgenic mice; details: Riluzole 0.02 g/kg gavage
Experimental: Neurological function was evaluated during the dosing phase using the Snow scoring method twice weekly. […]
The time from administration to the first occurrence of a neurological function score ≥3.5 was defined as the time to onset of paralysis. The mean time to onset of paralysis of animals was calculated. […] The paralysis delay rate for each drug group was also calculated according to the following formula:
The time from administration to the first occurrence of a neurological function score ≥3.5 was defined as the time to onset of paralysis. The mean time to onset of paralysis of animals was calculated. […]

[6] = system: SOD1-G93A transgenic mice; experiment: Serum malondialdehyde (MDA) in SOD1-G93A transgenic mice; details: Mus musculus, po, 720 h; read-out: % Inhibition rate (on oxidative damage, from MDA content)
Experimental: Blood of mice was collected by removal of eyeball. The blood samples were allowed to stand until supernatant separated out, and then centrifuged at 3,000 rpm for 10 minutes at 4° C. to isolate serum. The serum was aliquoted into EP tubes and stored in an ultra-low temperature refrigerator (−80° C.). MDA content was measured. The inhibition rate on oxidative damage by each drug group was calculated according to MDA content, following the formula of.
Blood of mice was collected by removal of eyeball. Blood samples were allowed to stand until supernatant separated out, and then centrifuged at 3,000 rpm for 10 minutes at 4° C. to isolate serum. The MDA content was measured using a kit, and the inhibition rate on oxidative damage by each drug group was calculated according to MDA content.

[7] = system: SOD1-G93A transgenic mice; experiment: Compound muscle action potential electrophysiology in SOD1-G93A transgenic mice; details: Riluzole 0.02 g/kg gavage, 30 days
Experimental: • 1.3.1 Animal Strain: B6SJL-Tg (SOD1-G93A) 1 Gur/J (Stock Number: 002726) provided by The Jackson Laboratory (United States). […] Both males and females were included. • 1.3.4 Animal Age: 7-8 weeks old. • 1.3.5 Animal Weight: At the start of dosing the body weight of male mice was 23.9-31.3 g, and the body weight of female mice was 17.7-25.4 g. • 1.3.6 Animal Source: Purchased from The Jackson Laboratory (United States). Breeding was conducted by Jiangsu GemPhanmatech Co., Ltd. • 1.3.7 Animal Certification of Quality, issuing authority, and receipt date: Certification number 320727210100609023. License number SCXK (Jiangsu) 2018-0008. Issuing authority: Jiangsu GemPharmatech Co., Ltd. Receipt date: Oct. 13, 2021. • 1.3.8 Feeding Conditions: Mice were reared in cages at the Innovative Drug Evaluation Center of Hebei Research Institute of Integrated Traditional Chinese and Western Medicine. License Number: SYXK (Hebei) 2020-006. Lighting: 12 h/day. Temperature: 20-26° C. Relative Humidity: 40%-70%. • 1.3.9 Quarantine Process: Animals were subjected to adaptive feeding for at least 5 days. […] Experimental Animal Production License Number: SCXK (Beijing) 2019-0003. Product Batch Number: 21073213. Expiration date: 2022 Jan. 3. • 1.3.11 Water: Clean water prepared by the ROB-B drinking water system for laboratory animal was provided, and filled in water bottles for free drinking. The drinking water was detected annually for all indicators, including mainly microbiological indicators, toxicological indicators, sensory characteristics, and general chemical parameters, and the detection was commissioned to a qualified institution. Microbial limit detection was performed every 2 months, which was commissioned to the Quality Control Department of Shijiazhuang Yiling Pharmaceutical Co., Ltd. The detection reports were stored by the animal department and archived annually. • 1.3.12 Bedding: Corn cob bedding (common grade) provided by Beijing Keao Xieli Feed Co., Ltd., was sterilized by high temperature and high pressure before use. Experimental Animal Production License Number: SCXK (Beijing) 2020-0010. Batch Number: 21099811. • 1.3.13 Marking: Mice were marked with ear tags, provided by Globalebio (Beijing) Technology Co., Ltd.
as §1
The drug was orally administered via gavage, consistent with the clinically recommended oral administration.
The administration dose for mice was 10 times the clinical dose, approximately 0.02 g/kg. The used administration volume was 10 ml/kg and administration concentration was 0.02 g/10 ml. […] During the preparation, one tablet was taken, ground with sterile injectable water and adjusted to a final volume of 25 ml. The obtained liquor can be used based on the number of animals.
The proposed clinical dose of TCM-073 was 18 g of raw drug/day. This test set three doses: low dose (1.5 g raw drug/kg), medium dose (3.0 g raw drug/kg), and high dose (6.0 g raw drug/kg), corresponding to 5, 10, and 20 times the clinical dose, respectively (See Table 14 for details). An appropriate amount of the drug was weighed and ground using sterile injectable water as the solvent to prepare high, medium, and low doses.
as §2
Based on preliminary experimental experience, literature review, and the disease characteristics of this mouse strain, the administration was started when the mice were 70 days old. […]

[8] = system: SOD1-G93A transgenic mice; experiment: Immunofluorescence of gastrocnemius muscle and spinal cord, SOD1-G93A transgenic mice; details: vs model control; Riluzole 0.02 g/kg; TCM-073 each administration group (1.5, 3.0, 6.0 g raw drug/kg); 30 days
Experimental: as §1, §2, §3
Based on the amount of spinal cord and muscle tissues harvested from mice, neuromuscular junction, stem cell regeneration, microglial senescence and degree of myelin and neuronal damage and repair were detected. For example, the muscular presynaptic marker (synaptotagmin-2) and the acetylcholine receptor (AChR) marker (α-BTX) were co-stained, the satellite cell marker (Pax7) and laminin 2a were co-stained, the myelin marker (myelin basic protein, MBP) was stained, and the neuronal marker (beta-III Tubulin, also known as Tuj-1) was stained. • 2.7.5 Molecular biological indicators
The muscular presynaptic marker (synaptotagmin-2) and acetylcholine receptor (AChR) marker (α-BTX) of the gastrocnemius muscle were detected by the immunofluorescence.
The satellite cell marker (Pax7) and laminin 2α of the gastrocnemius muscle were detected by the immunofluorescence.
The myelin marker (myelin basic protein, MBP) of the spinal cord was detected by the immunofluorescence.
The neuronal marker (beta-III Tubulin, also known as Tuj-1) of the spinal cord was detected by the immunofluorescence.

[9] = Riluzole 0.02 g/kg gavage, female
[10] = Riluzole 0.02 g/kg gavage, male

For `Nc1nc2ccc(OC(F)(F)F)cc2s1` [Riluzole], the “MBP content in spinal cord” value [1] was 0.99 ± 0.62, the “SV2A content in spinal cord” value [1] was 0.41 ± 0.15 and the Hanging time ([2]; 31 d of administration) was 63.3 ± 29.2 s. The Hanging time ([2]; 34 d of administration) was 57.6 ± 2.6 s, the Hanging time ([2]; 39 d of administration) was 46.5 ± 29.8 s and the Hanging time ([2]; 42 d of administration) was 40.8 ± 30.7 s. The Hanging time ([2]; 46 d of administration) was 33.8 ± 27.2 s, the Neurological function score ([3]; 31 d of administration) was 2.2 ± 0.4 and the Neurological function score ([3]; 34 d of administration) was 2.2 ± 0.4. The Neurological function score ([3]; 39 d of administration) was 2.2 ± 0.5, the Neurological function score ([3]; 42 d of administration) was 2.3 ± 0.5 and the Neurological function score ([3]; 46 d of administration) was 2.2 ± 0.4. The “Sciatic nerve axonal degeneration with myelin degeneration, number of samples per lesion grade” value ([4]; Riluzole 0.02 g/kg gavage, 6 samples) was “myelin degeneration (1 sample: +++, 4 samples: ++, 1 sample: +)”, the “Lesion score (divided by gender)” value [4, 9] was 2 and the “Lesion score (divided by gender)” value [4, 10] was 2. For the same molecule, the “Group Score (lesion)” value ([4]; Riluzole 0.02 g/kg gavage, median of lesion grade points of the group) was 2, the “Axonal degeneration with myelin degeneration, lesion grade of individual animal” value [4, 9] was “+ and ++ (2×)” and the “Axonal degeneration with myelin degeneration, lesion grade of individual animal” value [4, 10] was “++ (2×) and +++”. For the same molecule, the “Sciatic nerve pathological changes (HE staining) compared to the model control group” value ([4]; Riluzole 0.02 g/kg, TCM-073 high dose 6.0 g raw drug/kg) was “slightly milder”, the “Time to onset of paralysis” value ([5]; female) was 139.6 ± 5.7 days and the “Time to onset of paralysis” value ([5]; male) was 129.2 ± 18.9 days. The inhibition at 20 mg/kg [6] was 20%, the “Peak value of action potential” value ([7]; female) was 10.4 ± 4.0 and the “Time course within region of interest of action potential” value (shortened to “Time course within region”) ([7]; female) was 0.0018 ± 0.0002. For the same molecule, the “Wave amplitude of action potential” value ([7]; female) was 14.8 ± 5.6, the “Peak value of action potential” value ([7]; male) was 8.8 ± 2.2 and the “Time course within region” value ([7]; male) was 0.0016 ± 0.0001. For the same molecule, the “Wave amplitude of action potential” value ([7]; male) was 11.2 ± 3.9, the “Peak value of action potential” value ([7]; no division by gender) was 9.6 ± 3.3 and the “Time course within region” value ([7]; no division by gender) was 0.0017 ± 0.0002. The “Wave amplitude of action potential” value ([7]; no division by gender) was 13.0 ± 5.0, the “Co-localization degree of synaptotagmin-2 and α-BTX (neuromuscular junction), gastrocnemius muscle” value [8] was “increased the co-localization degree of neuromuscular junctions” and the “MBP (myelin marker) expression in spinal cord, immunofluorescence” value [8] was “increased the expression levels of the myelin marker”. The “Number of Pax7-positive satellite cells in the gastrocnemius muscle” value [8] was “increased the number of positive satellite cells in the gastrocnemius muscle” and the “Tuj-1 (neuronal marker) expression in spinal cord, immunofluorescence” value [8] was “increased the expression levels of the myelin marker and neuronal marker”.
